Common to all, as to assay: growth of human tumour cells (NCI), 48 h
For assay [1], the system named is A498 renal.
Assay [2] deals with 786-0 renal.
Assay [3] has as its system DU-145 prostate.
The test system of assay [4] is RPMI-8226 leukemia.
In assay [5] the test system is SN12C renal.
Assay [6] deals with MDA-MB-435.
Assay [7] has as its system M14 melanoma.
Assay [8] deals with NCI-H226 lung.
Assay [9] concerns NCI/ADR-RES ovarian.
Assay [10] concerns NCI-H23 lung.

From PubChem BioAssay (NCI) come the findings set out here.

SMILES strings stand for the structures.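 Briefly, cells in 96-well plates were exposed to five compound concentrations for 48 h, and endpoints were estimated by linear interpolation. At the GI50, growth is halved. TGI: total growth inhibition.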 A value given as a limit tells only on which side of the number the result lay.

Regarding `OCCCCC#Cc1ccccc1C#Cc1cccnc1`, the GI50 was 28.5 µM in [1]; 20200 nM in assay [2]; 47.3 µM in assay [3]; 35.5 µM in assay [4]; 26.9 µM in [5]; 32.2 µM in assay [6]. Also, the GI50 in assay [7] is 23.4 µM; in assay [8] it was 34.1 µM; in [9] it was 28.9 µM; in [10], 28 µM. Also, the TGI in assay [1] is 88.4 µM; in [2] it was 58.3 µM; in assay [3], > 100 µM; in assay [4], > 100 µM; in assay [5] it was 82.6 µM; in [6], > 100 µM. The TGI in [7] is 75.4 µM; in assay [8] it was > 100 µM; in [9], > 100 µM; in [10] it was > 100 µM.
Take `Nc1nc(Cl)nc2c1ncn2C1OC(CO)C(O)C1F` (stereo not drawn): the GI50 in assay [1] is 0.284 µM; in [2], 87.6 nM; in [3] it was 0.278 µM; in assay [4], 29.8 µM; in assay [5] it was < 0.0439 µM; in [6], 0.0472 µM. In addition, the GI50 is 0.024 µM in [7], 0.216 µM in [8], < 0.0166 µM in [9] and 0.02 µM in assay [10]. The TGI was 2.55 µM in assay [1]; 13.6 µM in assay [2]; > 100 µM in assay [4]; > 100 µM in assay [6]; 0.0889 µM in assay [7]; > 17.3 µM in assay [8]. Besides, the results for the TGI in [9] and in assay [10] were 4.98 µM and 0.626 µM, respectively.
As for `FC(F)c1ncc(-c2ccc(C(F)(F)F)cc2)c(NC2CCCCCC2)n1`, the GI50 in assay [1] was > 10 µM; in assay [2], > 10000 nM; in [3] it was > 10 µM; in assay [4], > 10 µM; in assay [5], > 10 µM; in assay [6] it was > 10 µM. Besides, the GI50 in [7], in assay [8], in assay [9] and in assay [10] was > 10 µM throughout. In addition, the TGI in assay [1], in assay [2], in assay [3], in assay [4], in assay [5] and in [6] was > 10 µM each time. The TGI in assay [7], in assay [8], in assay [9] and in assay [10] was > 10 µM throughout.
Turning to `CN1CCN(Cc2ccc(NC(=O)c3[nH]ncc3Nc3ncnc4[nH]ccc34)cc2)CC1`, the GI50 was 0.149 µM in assay [1]; 301 nM in assay [2]; 0.311 µM in assay [3]; 2.43 µM in [4]; 0.333 µM in assay [5]; 0.298 µM in [6]. Also, the GI50 in assay [7] was 0.473 µM; in [8], 0.205 µM; in assay [9], 7.16 µM; in [10] it was 0.295 µM. For the same compound, the TGI in assay [1] is 0.406 µM; in assay [2], 2 µM; in assay [3], > 100 µM; in [4], 6.59 µM; in assay [5], > 100 µM; in [6], 1.71 µM. Also, the TGI in assay [7] is 8.66 µM; in assay [8], 1.87 µM; in [9] it was > 100 µM; in [10], 1.08 µM.
As to `Cc1cc(=O)[nH]c(N/N=C/c2ccccc2O)n1`, the GI50 in [1] is 20.5 µM; in assay [2], 12700 nM; in assay [3] it was 15.3 µM; in assay [4], 5.61 µM; in assay [5], 18.7 µM; in [6], 18.7 µM. Also, the GI50 in assay [7] is 3.56 µM; in assay [8], 24.3 µM; in assay [9], 3.52 µM; in assay [10] it was 4.21 µM. Moreover, the TGI in assay [1] is 93.2 µM; in [2] it was > 100 µM; in assay [3], > 100 µM; in [4], > 100 µM; in assay [5], > 100 µM; in assay [6], > 100 µM. Also, the TGI in [7] is 26.3 µM; in [8], > 100 µM; in assay [9], > 100 µM; in assay [10] it was > 100 µM.
For the compound `CC12CCC(=O)C(O1)C1C(=O)c3ccc4c(ccc5ccccc54)c3C(=O)C12` (stereo not drawn), the GI50 in [1] was 3.08 µM; in assay [2], 2350 nM; in assay [3], 2.73 µM; in assay [4] it was 1.21 µM; in [5], 5.42 µM; in assay [6], 13 µM. The GI50 in assay [7] was 12.2 µM; in assay [8] it was 5.78 µM; in [9], 5.43 µM; in assay [10], 4.15 µM. Also, the TGI is 5.83 µM in assay [1]; 6.01 µM in assay [2]; 6.49 µM in [3]; > 21.5 µM in [4]; 10.3 µM in [5]; 26.4 µM in assay [6]. The TGI turned out to be 30.6 µM in assay [7], 12.7 µM in [8], 12.6 µM in [9] and 8.35 µM in [10].
With `COc1cc(C)cc(C(=O)/C=C/c2ccccc2)c1O`, the TGI in assay [1] is 33.3 µM; in assay [2] it was 37.3 µM; in [3], 29.4 µM; in assay [4] it was 63.3 µM; in assay [5], 34 µM; in assay [6] it was 83.6 µM. In addition, the TGI in assay [7] amounted to 34.8 µM; in assay [8], 73.9 µM; in [9], 52 µM; in [10], 32.4 µM.
With `CN1CCN(CCCOc2ccc3nc(Nc4ccc(F)c(F)c4)ccc3c2)CC1`, the GI50 is 1.26 µM in assay [1]; 1620 nM in assay [2]; 3.07 µM in assay [3]; 1.7 µM in assay [4]; 2.97 µM in assay [5]; 1.68 µM in assay [6]. Moreover, the GI50 in assay [7] is 1.74 µM; in [8] it was 10.8 µM; in assay [9], 3.4 µM; in [10], 3.15 µM. Also, the TGI turned out to be 4.03 µM in assay [1]; 3.3 µM in assay [2]; 11.5 µM in assay [3]; 6.3 µM in assay [4]; 11.8 µM in [5]; 3.36 µM in assay [6]. In addition, the TGI was found to be 3.68 µM in [7], 29.9 µM in assay [8], 14.7 µM in [9] and 13.2 µM in assay [10].
As for `Cc1nc(NS(=O)(=O)c2ccc(NCN3C(=O)c4ccccc4C3=O)cc2)oc1C`, the GI50 in assay [1] was > 100 µM; in assay [2], > 100000 nM; in [3] it was > 100 µM; in assay [4], > 100 µM; in assay [5] it was > 100 µM; in assay [6], > 100 µM. The GI50 in assay [7], in assay [8], in assay [9] and in assay [10] was > 100 µM throughout. Moreover, the TGI in assay [1], in assay [2], in assay [3], in [4], in assay [5] and in [6] was > 100 µM in each case. The TGI in assay [7], in [8], in assay [9] and in assay [10] was > 100 µM throughout.
As for `Fc1ccc2c(c1)C1=C(CCC2)C(c2ccc(Cl)cc2)NC(=S)N1` (stereo not drawn), the GI50 is 43.6 µM in assay [1]; 25000 nM in assay [2]; 49.1 µM in assay [3]; 13.1 µM in [4]; 60.8 µM in assay [5]; 40.9 µM in assay [6]. The GI50 is 40.9 µM in assay [7], 35.2 µM in assay [8], 61.6 µM in [9] and 84.7 µM in [10]. Also, the TGI was > 100 µM in assay [1]; > 100 µM in [2]; > 100 µM in assay [3]; 53.8 µM in assay [4]; 89.2 µM in [5]; > 100 µM in [6]. In addition, the TGI in [7], in assay [8], in assay [9] and in assay [10] was > 100 µM each time.
Consider `CC(=O)c1c[nH]c2ccc(-c3ccnc(Nc4ccc(NC(=O)C5CCCC5)c(CN5CCOCC5)c4)n3)cc12`, for which the GI50 is 0.0204 µM in [1]; 31 nM in assay [2]; 0.0362 µM in assay [3]; 0.045 µM in assay [4]; 0.0301 µM in assay [5]; 0.0286 µM in assay [6]. The GI50 in [7] is 0.0274 µM; in [8], 0.0298 µM; in assay [9], 0.306 µM; in [10], 0.0344 µM. Further, the TGI in assay [1] worked out at 0.0558 µM; in [2] it was 2.63 µM; in assay [3], 2.38 µM; in assay [4], 0.262 µM; in assay [5], 3.97 µM; in assay [6], 0.121 µM. Besides, the TGI in assay [7] came out at 0.0955 µM; in assay [8], 0.284 µM; in assay [9], 2.96 µM; in assay [10] it was 0.364 µM.
